Key:
Liver microsome [1] = experiment: Drug metabolism in human liver microsomes assessed as 1-(4-(4-fluoro-2-methyl-1H-indol-5-yloxy)-5-methylpyrrolo[1,2-f][1,2,4]triazin-6-yloxy)propan-2-one formation at 2 uM for 60 mins by LC/MS analysis in presence of NADPH; format: ADME
Liver microsome [2] = experiment: Drug metabolism in human liver microsomes assessed as (R)-4-fluoro-5-(6-(2-hydroxypropoxy)-5-methylpyrrolo[1,2-f][1,2,4]triazin-4-yloxy)-1H-indole-2-carboxylic acid formation at 2 uM for 60 mins by LC/MS analysis in presence of NADPH; format: ADME
Liver microsome [3] = experiment: Drug metabolism in human liver microsomes assessed as (R)-1-(4-(4-fluoro-2-(hydroxymethyl)-1H-indol-5-yloxy)-5-methylpyrrolo[1,2-f][1,2,4]triazin-6-yloxy)propan-2-ol formation at 2 uM for 60 mins by LC/MS analysis; format: ADME
Liver microsome [4] = experiment: Drug metabolism in human liver microsomes assessed as brivanib formation at 2 uM for 60 mins by LC/MS analysis in presence of NADPH; format: ADME; conditions: 1 h
Liver microsome [5] = experiment: Drug metabolism in human liver microsomes assessed as (R)-4-fluoro-5-(6-(2-hydroxypropoxy)-5-methylpyrrolo[1,2-f][1,2,4]triazin-4-yloxy)-1H-indole-2-carboxylic acid formation at 2 uM for 60 mins by LC/MS analysis; format: ADME
Liver microsome [6] = experiment: Drug metabolism in human liver microsomes assessed as (R)-1-(4-(4-fluoro-2-(hydroxymethyl)-1H-indol-5-yloxy)-5-methylpyrrolo[1,2-f][1,2,4]triazin-6-yloxy)propan-2-ol formation at 2 uM for 60 mins by LC/MS analysis in presence of NADPH; format: ADME
Liver cytosol [7] = experiment: Drug metabolism in human liver cytosol assessed as (R)-1-(4-(4-fluoro-2-methyl-1H-indol-5-yloxy)-5-methylpyrrolo[1,2-f][1,2,4]triazin-6-yloxy)propane-2-sulfonic acid formation at 2 uM for 2 hrs by LC/MS analysis in presence of PAPS; format: ADME
Liver microsome [8] = experiment: Drug metabolism in human liver microsomes assessed as brivanib formation at 2 uM for 60 mins by LC/MS analysis; format: ADME; conditions: 1 h
Liver microsome [9] = experiment: Drug metabolism in human liver microsomes assessed as 1-(4-(4-fluoro-2-methyl-1H-indol-5-yloxy)-5-methylpyrrolo[1,2-f][1,2,4]triazin-6-yloxy)propan-2-one formation at 2 uM for 60 mins by LC/MS analysis; format: ADME
Liver cytosol [10] = experiment: Drug level in human liver cytosol treated with 2 uM [14C]brivanib alaninate for 2 hrs by LC/MS analysis in presence of PAPS; format: ADME, tissue-based
Sulfotransferase 1B1 = Sulfotransferase 1B1 (Homo sapiens, UniProt O43704); experiment: Activity of human SULT1B1 assessed as compound formation treated with 2 and 20 uM brivanib for 30 mins by LC/MS analysis in presence of PAPS; format: ADME; conditions: 0.5 h
Sulfotransferase 2A1 = Sulfotransferase 2A1 (Homo sapiens, UniProt Q06520); experiment: Activity of human SULT2A1 assessed as compound formation treated with 2 and 20 uM brivanib for 30 mins by LC/MS analysis in presence of PAPS; format: ADME; conditions: 0.5 h
Sulfotransferase 1A1 = Sulfotransferase 1A1 (Homo sapiens, UniProt P50225); experiment: Activity of human SULT1A1 assessed as compound formation treated with 2 and 20 uM brivanib for 30 mins by LC/MS analysis in presence of PAPS; format: ADME; conditions: 0.5 h
Sulfotransferase 1E1 = Sulfotransferase 1E1 (Homo sapiens, UniProt P49888); experiment: Activity of human SULT1E1 assessed as compound formation treated with 2 and 20 uM brivanib for 30 mins by LC/MS analysis in presence of PAPS; format: ADME; conditions: 0.5 h
Sulfotransferase 1A3 = Sulfotransferase 1A3 (Homo sapiens, UniProt P0DMM9); experiment: Activity of human SULT1A3 assessed as compound formation treated with 2 and 20 uM brivanib for 30 mins by LC/MS analysis in presence of PAPS; format: ADME; conditions: 0.5 h
Liver cytosol [11] = experiment: Drug metabolism in human liver cytosol assessed as (R)-1-(4-(4-fluoro-2-(hydroxymethyl)-1H-indol-5-yloxy)-5-methylpyrrolo[1,2-f][1,2,4]triazin-6-yloxy)propane-2-sulfonic acid formation at 2 uM for 60 mins by LC/MS analysis in presence of PAPS; format: ADME
Liver cytosol [12] = experiment: Drug metabolism in human liver cytosol assessed as sulfate conjugate formation at 2 uM for 60 mins in absence of PAPS by LC/MS analysis; format: ADME, tissue-based; conditions: 1 h
Liver cytosol [13] = experiment: Drug metabolism in human liver cytosol assessed as (R)-4-fluoro-5-(5-methyl-6-(2-sulfopropoxy)pyrrolo[1,2-f][1,2,4]triazin-4-yloxy)-1H-indole-2-carboxylic acid formation at 2 uM for 60 mins by LC/MS analysis in presence of PAPS; format: ADME
Liver cytosol [14] = experiment: Drug metabolism in human liver cytosol assessed as (R)-4-fluoro-5-(6-(2-hydroxypropoxy)-5-methylpyrrolo[1,2-f][1,2,4]triazin-4-yloxy)-1H-indole-2-carboxylic acid formation at 2 uM for 60 mins by LC/MS analysis; format: ADME, tissue-based
Liver cytosol [15] = experiment: Drug metabolism in human liver cytosol assessed as (R)-4-fluoro-5-(6-(2-hydroxypropoxy)-5-methylpyrrolo[1,2-f][1,2,4]triazin-4-yloxy)-1H-indole-2-carboxylic acid formation at 2 uM for 60 mins by LC/MS analysis in presence of NADPH; format: ADME

Sequence of Sulfotransferase 1A1 (P50225 whole entry): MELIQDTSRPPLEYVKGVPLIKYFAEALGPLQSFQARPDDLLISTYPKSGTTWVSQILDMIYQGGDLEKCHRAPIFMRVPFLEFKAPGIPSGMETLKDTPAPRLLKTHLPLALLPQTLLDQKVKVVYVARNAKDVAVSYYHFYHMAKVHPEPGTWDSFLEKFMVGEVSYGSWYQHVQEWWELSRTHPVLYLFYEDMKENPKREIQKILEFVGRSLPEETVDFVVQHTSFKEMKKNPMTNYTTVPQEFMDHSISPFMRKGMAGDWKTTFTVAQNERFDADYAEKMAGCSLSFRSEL
Sequence of Sulfotransferase 1B1 (O43704 whole entry): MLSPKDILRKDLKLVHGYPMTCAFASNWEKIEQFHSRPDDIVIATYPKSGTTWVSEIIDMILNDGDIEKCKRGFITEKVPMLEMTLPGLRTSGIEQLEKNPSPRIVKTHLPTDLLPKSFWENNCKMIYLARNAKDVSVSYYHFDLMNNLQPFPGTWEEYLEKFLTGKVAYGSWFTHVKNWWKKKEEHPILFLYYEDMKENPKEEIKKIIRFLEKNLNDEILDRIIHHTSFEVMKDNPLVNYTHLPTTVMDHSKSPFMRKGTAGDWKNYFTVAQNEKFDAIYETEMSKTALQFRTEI
Sequence of Sulfotransferase 2A1 (Q06520 whole entry): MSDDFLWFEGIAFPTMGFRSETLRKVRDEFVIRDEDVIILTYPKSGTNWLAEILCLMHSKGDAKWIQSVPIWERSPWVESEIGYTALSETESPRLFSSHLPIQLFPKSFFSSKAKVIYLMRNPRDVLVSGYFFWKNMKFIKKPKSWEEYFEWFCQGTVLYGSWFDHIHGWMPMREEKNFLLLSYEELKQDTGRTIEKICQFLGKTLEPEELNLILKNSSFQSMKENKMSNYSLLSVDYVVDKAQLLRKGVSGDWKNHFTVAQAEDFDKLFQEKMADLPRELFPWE
Sequence of Sulfotransferase 1A3 (P0DMM9 whole entry): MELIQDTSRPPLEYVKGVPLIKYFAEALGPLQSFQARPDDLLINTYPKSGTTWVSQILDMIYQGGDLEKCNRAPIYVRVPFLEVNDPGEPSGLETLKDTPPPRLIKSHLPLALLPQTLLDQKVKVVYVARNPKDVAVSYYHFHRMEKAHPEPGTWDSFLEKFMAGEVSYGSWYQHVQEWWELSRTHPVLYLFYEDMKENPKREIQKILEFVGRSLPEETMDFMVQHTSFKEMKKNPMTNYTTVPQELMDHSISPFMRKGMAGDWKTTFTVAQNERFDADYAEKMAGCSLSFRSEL
Sequence of Sulfotransferase 1E1 (P49888 whole entry): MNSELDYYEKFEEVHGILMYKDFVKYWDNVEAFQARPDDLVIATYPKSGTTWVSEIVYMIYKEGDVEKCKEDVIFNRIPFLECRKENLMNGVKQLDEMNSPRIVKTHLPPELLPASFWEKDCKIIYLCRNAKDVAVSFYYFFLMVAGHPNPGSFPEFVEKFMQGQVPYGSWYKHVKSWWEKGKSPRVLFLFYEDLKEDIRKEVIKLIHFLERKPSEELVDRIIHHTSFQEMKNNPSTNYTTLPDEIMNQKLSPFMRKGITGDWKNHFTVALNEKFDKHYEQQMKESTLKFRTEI

**Q.** `Cc1cc2c(F)c(Oc3n[14cH]nn4cc(OC[C@@H](C)OC(=O)[C@H](C)N)c(C)c34)ccc2[nH]1` was tested. Which Drug metabolism (Liver microsome [1]) did it give?
**A.** Its Drug metabolism is “metabolite_detected”.

**Q.** And the Drug metabolism (Liver microsome [2])?
**A.** The Drug metabolism was “metabolite_detected”.

**Q.** What about the Drug metabolism (Liver microsome [3]) of the same molecule?
**A.** Its Drug metabolism is “metabolite_not_detected”.

**Q.** What about the Drug metabolism (Liver microsome [4]) of the same molecule?
**A.** The Drug metabolism was “metabolite_detected”.

**Q.** What about the Drug metabolism (Liver microsome [5]) of the same molecule?
**A.** The Drug metabolism was “metabolite_not_detected”.

**Q.** What about the Drug metabolism (Liver microsome [6]) of the same molecule?
**A.** The Drug metabolism was “metabolite_detected”.

**Q.** And the Drug metabolism (Liver cytosol [7])?
**A.** The Drug metabolism was “metabolite_detected”.

**Q.** And the Drug metabolism (Liver microsome [8])?
**A.** The Drug metabolism was “metabolite_detected”.

**Q.** What about the Drug metabolism (Liver microsome [9]) of the same molecule?
**A.** The Drug metabolism was “metabolite_not_detected”.

**Q.** For `Cc1cc2c(F)c(Oc3ncnn4cc(OC[C@@H](C)OS(=O)(=O)O)c(C)c34)ccc2[nH]1`, which Drug metabolism (Liver cytosol [10]) is on record?
**A.** Its Drug metabolism is “metabolite_detected”.

**Q.** And the Drug metabolism (Sulfotransferase 1B1)?
**A.** Its Drug metabolism is “metabolite_detected”.

**Q.** What about the Drug metabolism (Sulfotransferase 2A1) of the same molecule?
**A.** The Drug metabolism was “metabolite_detected”.

**Q.** What about the Drug metabolism (Sulfotransferase 1A1) of the same molecule?
**A.** Its Drug metabolism is “metabolite_detected”.

**Q.** And the Drug metabolism (Sulfotransferase 1E1)?
**A.** The Drug metabolism was “metabolite_detected”.

**Q.** And the Drug metabolism (Sulfotransferase 1A3)?
**A.** The Drug metabolism was “metabolite_detected”.

**Q.** `Cc1c(OC[C@@H](C)O)cn2n[14cH]nc(Oc3ccc4[nH]c(CO)cc4c3F)c12` was tested. Which Drug metabolism (Liver cytosol [11]) did it give?
**A.** Its Drug metabolism is “metabolite_detected”.

**Q.** And the Drug metabolism (Liver microsome [2])?
**A.** The Drug metabolism was “metabolite_detected”.

**Q.** What about the Drug metabolism (Liver cytosol [12]) of the same molecule?
**A.** The Drug metabolism was “metabolite_not_detected”.

**Q.** What about the Drug metabolism (Liver cytosol [13]) of the same molecule?
**A.** The Drug metabolism was “metabolite_detected”.

**Q.** What about the Drug metabolism (Liver microsome [5]) of the same molecule?
**A.** The Drug metabolism was “metabolite_not_detected”.

**Q.** And the Drug metabolism (Liver cytosol [14])?
**A.** Its Drug metabolism is “metabolite_detected”.

**Q.** What about the Drug metabolism (Liver cytosol [15]) of the same molecule?
**A.** Its Drug metabolism is “metabolite_detected”.

From ChEMBL document CHEMBL3526086, “Identification of the oxidative and conjugative enzymes involved in the biotransformation of brivanib” (Drug Metab Dispos, 2012)
